Results taken from patent publication US20150045407A1, “MTK1-ACTIN INHIBITORS AND METHODS OF USE” (THE ARIZONA BOARD OF REGENTS ON BEHALF OF THE UNIVERSITY OF …, priority 2013, published 2015).
Entries after “also recorded” stand apart in the source; their conditions may differ.

What was measured:
PI3K = details: Smirnova et al., 2012; cited from earlier work
MTK1/HER3 association = experiment: HRG-induced MTK1/HER3 association, MTK1 immunoprecipitation and immunoblot in MCF-7 cells; details: then 10 nM HRG 12 minutes; for Effect on HRG-induced MTK1/HER3 association: MCF-7 cells pre-treated with 0, 50, 100 or 200 nM lapatinib for 1 hour, pTyr immunoblot of MTK1 IP
Experimental: (§3) MCF-7 cells were maintained in the same media as T-47D cells and supplemented additionally with 10 μg/ml insulin. Prior to experimental procedures, cells were cultured in DMEM supplemented only with 1% penicillin-streptomycin for 16 hrs. […] Cells were treated with 1 μg/ml Cytochalasin D for 30 minutes prior to addition of HRG.
(§4) Images were obtained using ChemiDoc™ XRS+ (BIO-RAD) and quantification was performed with Image Lab Software. […] All commercial antibodies were used according to manufacturer recommendations.
The cells were then washed twice with ice-cold 1× phosphate buffered saline pH 7.4. […] Immune complexes recovered using protein A-Sepharose beads (Sigma Cat# P3391) were washed twice with ice-cold lysis buffer and denatured with Laemmli sample buffer.

HER3 = HER3 phosphorylation in HRG-stimulated MCF-7 cell lysates (immunoblot); details: for Effect on phosphorylation (activation) of HER3: MCF-7 cell lysates, 1 μg/ml cytochalasin D 30 minutes, then 10 nM HRG 12 minutes
Experimental: as §3, §4

MCF-7 cells [1] = experiment: HRG-induced extracellular acidification, media pH measurement; format: cell-based, human
Experimental: (§1) MCF-7 and T-47D cells were seeded in complete growth media at a density of 0.4×10^6 cells per well in 12-well plates (VWR #62406-165) for proliferation assays and 0.7×10^6 cells per well for pH measurements. Cells were allowed to adhere for 16 hours, followed by 4 hour serum starvation in DMEM, 1% penicillin-streptomycin without fetal bovine serum. […] Each condition was performed in triplicate and repeated a minimum of 3 times. After 24 hours, the cells were counted using a TC-10 Bio-Rad automated cell counter and the media pH was recorded using a pH meter probe. Data shown for each condition represents n=3. A two sided student t-test with standard deviation were used to perform statistical analyses on proliferation rates and media pH measurements. Statistical significance was determined by a p-value ≦0.05.
(§2) MCF-7 cells were seeded (onto 10 cm cell culture plates, VWR #353003) at a density of 5.0×10^6 cells and allowed to adhere for 16 hours. […] The cells were counted and seeded onto 12 well plates (VWR #62406-165) at a density of 0.7×10^6 cells per well for pH measurements and scratch assays or at density of 0.4×10^6 cells per well for proliferation assays. MTK1 knockdown efficiency was determined by immunoblot analysis using 150 μg whole cell lysate at 120 hours post-secondary transfection. […]

MCF-7 cells [2] = experiment: Scratch assay, HRG-induced cell migration; format: cell-based, human; details: 250 nM lapatinib pre-treatment, 10 nM HRG
Experimental: MCF-7 cells were seeded (onto 10 cm cell culture plates, VWR #353003) at a density of 5.0×10^6 cells and allowed to adhere for 16 hours. The cells were then transfected with 434 pmol of siRNA specific for MTK1 (Thermo Scientific ON-TARGETplus SMARTpool, Human MAP3K4 (4216) Cat #L-003789-00-0005) or non-targeting (NS) (ON-TARGETplus Non-targeting Pool Cat #D-001810-10-05) as control using lipofectamine 2000 according to manufacture recommendations. The cells were transfected with siRNA a second time 24 hours later using lipofectamine 2000 to enhance knockdown efficiency. Twenty-four hours after the second transfection the cells were detached using 0.25% trypsin (Invitrogen #15050-065). The cells were counted and seeded onto 12 well plates (VWR #62406-165) at a density of 0.7×10^6 cells per well for pH measurements and scratch assays or at density of 0.4×10^6 cells per well for proliferation assays. MTK1 knockdown efficiency was determined by immunoblot analysis using 150 μg whole cell lysate at 120 hours post-secondary transfection. Each condition was performed in triplicate and repeated a minimum of 3 times. Data shown for each condition represents n=3. Statistical analysis was performed as described above.
Scratch assays were performed in 12-well plates using MCF-7 cells at a density of 0.7×10^6 cells per well. […]

MCF-7 cells [3] = experiment: Cell proliferation and viability (automated cell count, trypan blue); format: cell-based, human; details: 10 nM HRG or 3.3 nM EGF, 24 hours
Experimental: as §1, §2

## Cc1ccc([N+](=O)[O-])cc1S(=O)(=O)N(C)/N=C/c1cnc2ccc(Br)cn12 [PIK-75]
PI3K
  Effect on cell motility and invasion: inhibits cell motility and invasion

## C=C1[C@@H](C)[C@H]2[C@H](Cc3ccccc3)NC(=O)[C@]23[C@H](OC(C)=O)/C=C/[C@@](C)(O)C(=O)[C@@H](C)C/C=C/[C@H]3[C@@H]1O [cytochalasin D]
MTK1/HER3 association; MCF-7 cells, 1 μg/ml cytochalasin D 30 minutes
  Effect on HRG-induced MTK1/HER3 association (in words): disrupted the communication or signaling between HER3/ErbB3 and MTK1; also recorded: inhibited HRG induced MTK1/HER3 association; also recorded: inhibited MTK1 and HER3 association
MTK1/HER3 association; MCF-7 cells, 1 μg/ml cytochalasin D 30 minutes, listed as Cytochalasin D
  Effect on HRG-induced MTK1/HER3 association (in words): diminished interaction between MTK1 and HER3
MTK1/HER3 association; MCF-7 cells, 1 μg/ml cytochalasin D 30 minutes, pY1289 HER3 immunoblot of MTK1 IP
  Decrease of interaction between HER3 and MTK1: ~60%
HER3
  Effect on phosphorylation (activation) of HER3: not affected; also recorded: remained the same
HER3; listed as Cytochalasin D
  Effect on phosphorylation (activation) of HER3: no effect

## CS(=O)(=O)CCNCc1ccc(-c2ccc3ncnc(Nc4ccc(OCc5cccc(F)c5)c(Cl)c4)c3c2)o1 [lapatinib]
MCF-7 cells [1]; 250 nM lapatinib pre-treatment, 10 nM HRG 24 hours, media pH
  Effect on HRG-induced extracellular acidification: significantly decreased; also recorded: inhibition of HRG-induced extracellular acidification
MCF-7 cells [2]
  Effect of lapatinib on HRG-induced cell migration: significantly decreased cell migration
MTK1/HER3 association
  Effect on HRG-induced MTK1/HER3 association: effectively inhibited; also recorded: attenuates MTK1/HER3 association; also recorded: inhibited association of MTK1 and HER3
MTK1/HER3 association; listed as Lapatinib
  Effect on HRG-induced MTK1/HER3 association: decreased the interaction between HER3 and MTK1 in a dose dependent manner
HER3; MCF-7 cells, lapatinib 50-200 nM pre-treatment 1 hour, 10 nM HRG 12 minutes
  Effect on tyrosine phosphorylation of HER3 in lysates: effectively inhibited; also recorded: decreased

## EGF: growth factor used to stimulate cells at 3.3 nM; activates EGFR and HER2 (NSDSECPLSHDGYCLHDGVCMYIEALDKYACNCVVGYIGERCQYRDLKWWELR; Epidermal growth factor; UniProt P01133 971-1023, looked up)
MCF-7 cells [1]; 10 nM HRG or 3.3 nM EGF, 24 hours, compared to vehicle
  Extracellular acidification of cell culture media by stimulation: no effect; also recorded: did not induce extracellular acidification
MCF-7 cells [3]
  Cell proliferation on stimulation: proliferative response was detected; also recorded: induced cell proliferation
